Laboratory results reported in patent US20250129073A1, “INHIBITOR OF RECEPTOR-INTERACTING PROTEIN KINASE 1, AND PREPARATION METHOD AND USE THEREFOR” (CHINA PHARMACEUTICAL UNIVERSITY, priority 2021, published 2025).

Target: RIPK1 kinase (Homo sapiens (Human), UniProt Q13546)
Experiment: RIPK1 kinase inhibitory assay (ADP-Glo)
Format: biochemical
Conditions: 10 μM compound; read-out: Inhibition rate of RIPK1 at 10 μM (%)
Method: Materials and Instruments: ADP-Glo kinase kit (purchased from Promega), RIPK1 GST-Th-Tag (purchased from Bps Bioscience), MBP substrate (purchased from Millipore), nunc 384-well plate, ATP fluorescence analyzer Paradigm detection platform (purchased from Beckman coulter)
The compounds were diluted in DMSO and configured into a solution with a final concentration of 10 mM; Dilute RIP1 kinase from 140 ng/μL to 20 ng/μL for use. Dilute 10 mM of ATP to 100 μM for later use; Dilute 5 mg/mL of MBP to 1 mg/mL for later use. Appropriate embodiments were added into the well of the 384-well plate, 10 μl […] ATP was evenly mixed with 1 μl 1 mg/mL MB P, the mixed solution was added to the well, and 2 μL […] RIP1 kinase was added to the hole, and then incubated at room temperature for 1 h. Subsequently, 5 μL ADP-Glo reagent was added to each well and incubated at room temperature for 40 min. Then, 10 μL ADP-Glo detection reagent was added to each well and incubated at room temperature for 30 min. Finally, the RLU value (relative light unit) of each well was measured by ATP fluorometer, and each sample was repeated twice. Inhibition rate=(RLU value of blank group−RLU value of drug administration group)/RLU value of blank group×100%.

Chain of RIPK1 kinase (Q13546 whole entry): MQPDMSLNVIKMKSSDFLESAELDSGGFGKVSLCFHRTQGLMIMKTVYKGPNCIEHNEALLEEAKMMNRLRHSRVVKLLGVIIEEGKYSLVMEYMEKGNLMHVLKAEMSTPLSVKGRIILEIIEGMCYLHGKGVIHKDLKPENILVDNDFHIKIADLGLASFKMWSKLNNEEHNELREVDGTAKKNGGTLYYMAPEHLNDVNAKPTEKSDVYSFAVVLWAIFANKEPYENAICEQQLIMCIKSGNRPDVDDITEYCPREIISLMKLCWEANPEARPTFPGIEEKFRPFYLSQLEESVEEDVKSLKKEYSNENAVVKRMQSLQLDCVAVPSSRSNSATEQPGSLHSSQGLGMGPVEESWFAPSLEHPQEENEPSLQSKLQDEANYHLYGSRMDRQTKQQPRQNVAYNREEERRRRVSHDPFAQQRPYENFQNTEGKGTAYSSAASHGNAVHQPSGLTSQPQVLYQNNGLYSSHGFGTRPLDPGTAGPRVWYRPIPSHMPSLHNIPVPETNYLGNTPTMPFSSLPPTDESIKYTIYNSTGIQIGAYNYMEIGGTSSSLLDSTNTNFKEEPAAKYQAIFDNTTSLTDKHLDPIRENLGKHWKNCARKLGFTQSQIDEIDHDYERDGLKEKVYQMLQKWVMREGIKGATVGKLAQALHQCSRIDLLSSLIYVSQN

SMILES | inhibition at 10 µM
CN1C(=O)N(Cc2ccccc2)C(=O)C12CCN(C(=O)c1ccccc1)CC2 [Compound 2, 8-benzoyl-3-benzyl-1-methyl-1,3,8-triazaspiro [4.5] decane-2,4-dione] | 8%
CN1C(=O)N(Cc2cccc(Cl)c2)C(=O)C12CCN(C(=O)c1ccccc1)CC2 [Compound 3, 8-benzoyl-3-(3-chlorobenzyl)-1-methyl-1,3,8-triazaspiro[4.5]decane-2,4-dione] | 11%
CN1C(=O)N(Cc2ccc(C(F)(F)F)cc2)C(=O)C12CCN(C(=O)c1ccccc1)CC2 [Compound 4, 8-benzoyl-1-methyl-3-(4-(trifluoromethyl)benzyl)-1,3,8-triazaspiro decane-2,4-dione] | 16%
CN1C(=O)N(Cc2cccnc2)C(=O)C12CCN(C(=O)c1ccccc1)CC2 [Compound 5, 8-benzoyl-1-methyl-3-(pyridin-3-ylmethyl)-1,3,8-triazaspiro [4.5]decane-2,4-dione] | 20%
CN1C(=O)N(Cc2ccccn2)C(=O)C12CCN(C(=O)c1ccccc1)CC2 [Compound 6, 8-benzoyl-1-methyl-3-(pyridin-2-ylmethyl)-1,3,8-triazaspiro [4.5]decane-2,4-dione] | 4%
CN1C(=O)N(CC2CCCCC2)C(=O)C12CCN(C(=O)c1ccccc1)CC2 [Compound 7, 8-benzoyl-3-(cyclohexylmethyl)-1-methyl-1,3,8-triazaspiro [4.5]decane-2,4-dione] | 34%
CN1C(=O)N(CC2CCCC2)C(=O)C12CCN(C(=O)c1ccccc1)CC2 [Compound 8, 8-benzoyl-3-(cyclopentylmethyl)-1-methyl-1,3,8-triazaspiro [4.5]decane-2,4-dione] | 22%
O=C(c1ccccc1)N1CCC2(CC1)CCN(Cc1ccccc1)C2=O [Compound 9, 8-benzoyl-2-benzyl-2,8-diazaspiro[4.5]decan-1-one] | > 50%
O=C(c1ccccc1)N1CCC2(CC1)CCN(Cc1cccc(Cl)c1)C2=O [Compound 10, 8-benzoyl-2-(3-chlorobenzyl)-2,8-diazaspiro[4.5]decan-1-one] | > 50%
O=C(c1ccccc1)N1CCC2(CC1)CCN(CC1CCCCC1)C2=O [Compound 11, 8-benzoyl-2-(cyclohexylmethyl)-2,8-diazaspiro[4.5]decan-1-one] | > 50%
O=C(c1ccccc1)N1CCC2(CC1)CCN(CC1CCCC1)C2=O [Compound 12, 8-benzoyl-2-(cyclopentylmethyl)-2,8-diazaspiro[4.5]decan-1-one] | > 50%
O=C(c1ccccc1)N1CCC2(CC1)CCN(Cc1cccnc1)C2=O [Compound 13, 8-benzoyl-2-(pyridin-3-ylmethyl)-2,8-diazaspiro[4.5]decan-1-one] | > 50%
O=C(c1ccccc1)N1CCC2(CC1)CCN(Cc1ccccn1)C2=O [Compound 14, 8-benzoyl-2-(pyridin-2-ylmethyl)-2,8-diazaspiro[4.5]decan-1-one] | > 50%
O=C(c1ccccc1)N1CCC2(CC1)CCN(Cc1ccc(C(F)(F)F)cc1)C2=O [Compound 15, 8-benzoyl-2-(4-(trifluoromethyl)benzyl)-2,8-diazaspiro[4.5]decan-1-one] | > 50%
O=C(c1ccncc1)N1CCC2(CC1)CCN(Cc1ccccc1)C2=O [Compound 16, 2-benzyl-8-isonicotinoyl-2,8-diazaspiro[4.5]decan-1-one] | > 50%
O=C(c1cccnc1)N1CCC2(CC1)CCN(Cc1ccccc1)C2=O [Compound 17, 2-benzyl-8-nicotinoyl-2,8-diazaspiro[4.5]decan-1-one] | 45%
O=C(c1cnco1)N1CCC2(CC1)CCN(Cc1ccccc1)C2=O [Compound 18, 2-benzyl-8-(oxazole-5-carbonyl)-2,8-diazaspiro[4.5]decan-1-one] | > 50%

SMILES | inhibition at 10 µM
O=C1N(Cc2ccccc2)CCC12CCN(Cc1ccccc1)CC2 [Compound 19, 2,8-dibenzyl-2,8-diazaspiro[4.5]decan-1-one] | 16%
O=C1N(Cc2ccccc2)CCC12CCN(S(=O)(=O)c1ccccc1)CC2 [Compound 20, 2-benzyl-8-(phenylsulfonyl)-2,8-diazaspiro [4.5]decan-1-one] | 21%
CN1CCC2(CC1)CCN(Cc1ccccc1)C2=O [Compound 21, 2-benzyl-8-methyl-2,8-diazaspiro[4.5]decan-1-one] | 5%
CC(C)N1CCC2(CCN(Cc3ccccc3)C2=O)CC1 [Compound 22, 2-benzyl-8-isopropyl-2,8-diazaspiro[4.5]decan-1-one] | 8%
O=C(c1c[nH]c2ccccc12)N1CCC2(CC1)CCN(Cc1ccccc1)C2=O [Compound 23, 2-benzyl-8-(1H-indole-3-carbonyl)-2,8-diazaspiro[4.5]decan-1-one] | > 50%
O=C(c1ccc2[nH]ccc2c1)N1CCC2(CC1)CCN(Cc1ccccc1)C2=O [Compound 24, 2-benzyl-8-(1H-indole-5-carbonyl)-2,8-diazaspiro[4.5]decan-1-one] | > 50%
O=C(c1ccc2cc[nH]c2c1)N1CCC2(CC1)CCN(Cc1ccccc1)C2=O [Compound 25, 2-benzyl-8-(1H-indole-6-carbonyl)-2,8-diazaspiro[4.5]decan-1-one] | > 50%
Cn1cnc2ccc(C(=O)N3CCC4(CC3)CCN(Cc3ccccc3)C4=O)cc21 [Compound 26, 2-benzyl-8-(1-methyl-1H-benzo[d]imidazole-6-carbonyl)-2,8-diazaspiro[4.5]decan-1-one] | 14%
Cn1cc(C(=O)N2CCC3(CC2)CCN(Cc2ccccc2)C3=O)c2ccccc21 [Compound 27, 2-benzyl-8-(1-methyl-1H-indole-3-carbonyl)-2,8-diazaspiro[4.5]decan-1-one] | 46%
Cn1ccc2cc(C(=O)N3CCC4(CC3)CCN(Cc3ccccc3)C4=O)ccc21 [Compound 28, 2-benzyl-8-(1-methyl-1H-indole-5-carbonyl)-2,8-diazaspiro[4.5]decan-1-one] | 3%
Cn1ccc2ccc(C(=O)N3CCC4(CC3)CCN(Cc3ccccc3)C4=O)cc21 [Compound 29, 2-benzyl-8-(1-methyl-1H-indole-6-carbonyl)-2,8-diazaspiro[4.5]decan-1-one] | > 50%
O=C(c1cnco1)N1CCC2(CC1)CCN(Cc1ccccc1F)C2=O [Compound 30, 2-(2-fluorobenzyl)-8-(oxazole-5-carbonyl)-2,8-diazaspiro[4.5]decan-1-one] | > 50%
O=C(c1ccccc1)N1CCC2(CC1)CCN(Cc1cccc(F)c1)C2=O [Compound 32, 8-benzoyl-2-(3-fluorobenzyl)-2,8-diazaspiro[4.5]decan-1-one] | > 50%
O=C(c1ccccc1)N1CCC2(CC1)CCN(Cc1ccc(F)cc1)C2=O [Compound 33, 8-benzoyl-2-(4-fluorobenzyl)-2,8-diazaspiro[4.5]decan-1-one] | > 50%
O=C(c1ccccc1)N1CCC2(CC1)CCN(Cc1cc(F)cc(F)c1)C2=O [Compound 35, 8-benzoyl-2-(3,5-difluorobenzyl)-2,8-diazaspiro[4.5]decan-1-one] | > 50%
O=C1N(Cc2ccccc2)CCC12CCN(c1ncccn1)CC2 [Compound 36, 2-benzyl-8-(pyrimidin-2-yl)-2,8-diazaspiro[4.5]decan-1-one] | > 50%
